The target in the experiment is CDK1 (Homo sapiens, UniProt P06493). The experiment is described as follows: Cyclin dependent protein kinase assay, CDK1. It is filed as biochemical. Conditions: inhibitory activity against CDK1, baculovirus-expressed enzyme, [γ-32P]ATP peptide phosphorylation.
Sequence of CDK1 (P06493 whole entry, species assumed): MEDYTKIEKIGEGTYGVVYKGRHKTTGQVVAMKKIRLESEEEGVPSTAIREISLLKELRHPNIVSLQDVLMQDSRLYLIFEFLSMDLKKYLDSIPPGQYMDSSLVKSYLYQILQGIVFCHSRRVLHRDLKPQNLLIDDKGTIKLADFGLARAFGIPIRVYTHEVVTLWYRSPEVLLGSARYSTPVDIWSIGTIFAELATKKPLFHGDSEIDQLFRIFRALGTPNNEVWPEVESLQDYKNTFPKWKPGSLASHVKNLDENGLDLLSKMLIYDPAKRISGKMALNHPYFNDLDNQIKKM
Sequence of CDK1 (P14635 whole entry partner, species assumed): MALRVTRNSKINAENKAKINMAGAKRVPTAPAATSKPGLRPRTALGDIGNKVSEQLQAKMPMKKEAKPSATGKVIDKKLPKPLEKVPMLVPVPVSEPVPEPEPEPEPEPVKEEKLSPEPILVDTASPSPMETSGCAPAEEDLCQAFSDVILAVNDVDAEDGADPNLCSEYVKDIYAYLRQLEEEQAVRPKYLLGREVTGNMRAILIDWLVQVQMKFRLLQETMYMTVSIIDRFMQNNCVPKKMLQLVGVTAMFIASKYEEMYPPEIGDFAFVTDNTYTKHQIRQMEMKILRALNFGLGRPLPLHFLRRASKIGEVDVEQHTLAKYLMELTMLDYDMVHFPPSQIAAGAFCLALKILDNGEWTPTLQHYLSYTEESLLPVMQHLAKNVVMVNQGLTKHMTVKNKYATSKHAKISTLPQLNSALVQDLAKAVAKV
A word on the IC50: it is the concentration that gives 50% inhibition. The molecule `O=C1Nc2ccc3ncsc3c2C1=CNc1ccc(S(=O)(=O)NCc2ccncc2)cc1` [Compound A3] had an IC50 of 11 to 50 nM.
Then `CC(C)(CO)CNS(=O)(=O)c1ccc(NC=C2C(=O)Nc3ccc4ncsc4c32)cc1` [Compound A1], with 1 to 10 nM.
Then `O=C1Nc2ccc3ncsc3c2C1=CNc1ccc(S(=O)(=O)Nc2ccccn2)cc1` [Compound A2], with 51 to 100 nM.

These data come from patent US6620818B1, “Method for reducing the severity of side effects of chemotherapy and/or radiation therapy” (priority 2001, dated 2003).
